This note sets out measurements from patent publication US7241775B2, “Composition, process of making, and medical use of substituted 4-phenyltetrahydroisoquinolines” (Sanofi-Aventis Deutschland GmbH, priority 2003, dated 2007).

One may read the IC50 as the concentration needed to halve the response being measured. Lower therefore signals greater potency.

Each structure is given as a SMILES string. Counter-ions that a name gives are not always drawn.

This test has as its target T1, NHE3 (Homo sapiens, UniProt P48764).
T1 sequence (P48764 26-834): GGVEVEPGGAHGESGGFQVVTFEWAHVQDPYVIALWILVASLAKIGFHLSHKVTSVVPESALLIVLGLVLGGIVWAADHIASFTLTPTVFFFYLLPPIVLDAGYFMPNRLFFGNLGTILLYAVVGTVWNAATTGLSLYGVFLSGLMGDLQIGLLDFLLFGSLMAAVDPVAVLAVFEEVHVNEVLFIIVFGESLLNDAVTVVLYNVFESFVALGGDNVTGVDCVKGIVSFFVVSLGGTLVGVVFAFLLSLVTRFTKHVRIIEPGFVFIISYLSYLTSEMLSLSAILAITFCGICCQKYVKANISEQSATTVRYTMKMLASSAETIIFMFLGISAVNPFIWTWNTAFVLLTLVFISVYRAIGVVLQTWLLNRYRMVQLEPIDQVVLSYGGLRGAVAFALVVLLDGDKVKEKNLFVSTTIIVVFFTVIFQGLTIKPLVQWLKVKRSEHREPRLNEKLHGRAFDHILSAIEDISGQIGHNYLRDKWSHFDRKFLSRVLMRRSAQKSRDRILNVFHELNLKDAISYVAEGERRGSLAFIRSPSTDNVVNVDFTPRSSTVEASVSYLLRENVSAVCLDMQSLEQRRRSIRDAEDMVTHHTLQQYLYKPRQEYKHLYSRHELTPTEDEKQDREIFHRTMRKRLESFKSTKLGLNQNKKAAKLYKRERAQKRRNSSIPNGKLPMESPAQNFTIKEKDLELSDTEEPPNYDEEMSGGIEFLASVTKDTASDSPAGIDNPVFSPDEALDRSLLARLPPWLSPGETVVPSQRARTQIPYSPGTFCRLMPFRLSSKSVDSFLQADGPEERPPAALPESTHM
Nature of the test: Recovery of intracellular pH (pHi) after acidification, BCECF fluorescence, NHE3. It is filed as cell-based. The following applies: inhibition of pH recovery after intracellular acidification; rate registered at three minutes for NHE3; bicarbonate-free. The procedure:
Pharmacological Data: Test Description:
This test determines the recovery of the intracellular pH (pHi) after acidification, and this recovery occurs in the case of functional NHE even under bicarbonate-free conditions. To this end, the pHi was determined using the pH-sensitive fluorescent dye BCECF (Calbiochem, the BCECF-AM precursor was used). The cells were initially loaded with BCECF. The BCECF fluorescence was determined in a Ratio Fluorescence Spectrometer (Photon Technology International, South Brunswick, N.J., USA) at excitation wavelengths of 505 and 440 nm and an emission wavelength of 535 nm and converted to the pHi by means of calibration curves. The cells had already been incubated in NH4Cl buffer (pH 7.4) in the course of the BCECF loading (NH4Cl buffer: 115 mM NaCl, 20 mM NH4Cl, 5 mM KCl, 1 mM CaCl2, 1 mM MgSO4, 20 mM Hepes, 5 mM glucose, 1 mg/ml BSA; a pH of 7.4 was established using 1 M NaOH). The intracellular acidification was induced by adding 975 μl of an NH4Cl-free buffer (see below) to 25 μl aliquots of the cells incubated in NH4Cl buffer. The subsequent rate of the pH recovery was registered at 2 minutes for NHE1, at 5 minutes for NHE2 and at three minutes for NHE3. For the calculation of the inhibitory potency of the tested substances, the cells were initially investigated in buffers in which complete or absolutely no pH recovery took place. For complete pH recovery (100%), the cells were incubated in Na^+-containing buffer (133.8 mM NaCl, 4.7 mM KCl, 1.25 mM CaCl2, 1.25 mM MgCl2, 0.97 mM Na2HPO4, 0.23 mM NaH2PO4, 5 mM Hepes, 5 mM glucose, a pH of 7.0 was established using 1 M NaOH). For the determination of the 0% value, the cells were incubated in an Na^+-free buffer (133.8 mM choline chloride, 4.7 mM KCl, 1.25 mM CaCl2, 1.25 mM MgCl2, 0.97 mM K2HPO4, 0.23 mM KH2PO4, 5 mM Hepes, 5 mM glucose, a pH of 7.0 was established using 1 M NaOH). The substances to be tested were made up in the Na^+-containing buffer. The recovery of the intracellular pH at each tested concentration of a substance was expressed in percent of the maximum recovery. The percentages of the pH recovery were used to calculate the IC50 value of the particular substance for the individual NHE subtypes by means of the program Sigma-Plot.
`CN1Cc2c(Cl)cc(Cl)cc2C(c2cccc(NC(=O)[C@H](O)[C@@H](O)[C@H](O)[C@H](O)CO)c2)C1` (stereo partly drawn) [Example 2, N-[3-(6,8-dichloro-2-methyl-1,2,3,4-tetrahydroisoquinolin-4-yl)phenyl]-(2R,3S,4R,5R)-2,3,4,5,6-pentahydroxyhexanamide] registered an IC50 of 3.6 nM.

`CN1Cc2c(Cl)cc(Cl)cc2C(c2cccc(NC(=O)N[C@@H](CC(N)=O)C(=O)O)c2)C1` (stereo partly drawn) [Example 13, {N-[3-(6,8-dichloro-2-methyl-1,2,3,4-tetrahydroisoquinolin-4-yl)phenyl]-N′-(1-carboxy-4-aminocarboxy-2S-butyl)}urea hydrochloride] showed an IC50 of 17.6 nM.

In turn, `CN1Cc2c(Cl)cc(Cl)cc2C(c2cccc(C(=O)N[C@@H](CO)C(=O)O)c2)C1` (stereo partly drawn) [Example 16, (S)-2-[3-(6,8-dichloro-2-methyl-1,2,3,4-tetrahydroisoquinolin-4-yl)benzoylamino]-3-hydroxypropionic acid hydrochloride] registered an IC50 of 159 nM. In the case of `CN1Cc2c(Cl)cc(Cl)cc2C(c2ccc(NC(=O)[C@@H](N)CCCNC(=N)N)cc2)C1` (stereo partly drawn) [Example 31, N-[4-(6,8-dichloro-2-methyl-1,2,3,4-tetrahydroisoquinolin-4-yl)phenyl]-(S)-2-amino-5-guanidinopentanamide trifluoroacetate], it took 29.1 nM to reach half-maximal inhibition (IC50).
